US20050101595A1, “N-containing cycloalkyl-substituted amino-thiazole derivatives and pharmaceutical compositions for inhibiting cell proliferation and methods for their use” (PFIZER INC., priority 2003, published 2005)
Counter-ions that a name gives are not always drawn. Like-named read-outs stand apart in the source and are kept apart here.

Assays:
[1] = target: human CDK4 and genetically truncated (1-264) cyclin D3 (Homo sapiens, UniProt P11802); assay: Inhibition of CDK4/Cyclin D Retinoblastoma Kinase Activity; type: biochemical; conditions: for Ki: apparent Ki, CDK4/truncated cyclin D3, Rb fragment substrate, 25 μM ATP
Chain of human CDK4 and genetically truncated (1-264) cyclin D3 (P11802 whole entry, the tested form may be a part): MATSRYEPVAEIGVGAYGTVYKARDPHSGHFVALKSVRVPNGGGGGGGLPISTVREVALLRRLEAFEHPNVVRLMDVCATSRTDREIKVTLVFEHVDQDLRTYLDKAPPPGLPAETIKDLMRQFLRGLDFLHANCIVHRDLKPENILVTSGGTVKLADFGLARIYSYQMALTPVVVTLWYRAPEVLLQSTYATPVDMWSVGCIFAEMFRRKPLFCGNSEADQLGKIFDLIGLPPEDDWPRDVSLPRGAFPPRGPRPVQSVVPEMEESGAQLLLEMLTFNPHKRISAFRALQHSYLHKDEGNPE
Chain of human CDK4 and genetically truncated (1-264) cyclin D3 (P30281 1-264 partner): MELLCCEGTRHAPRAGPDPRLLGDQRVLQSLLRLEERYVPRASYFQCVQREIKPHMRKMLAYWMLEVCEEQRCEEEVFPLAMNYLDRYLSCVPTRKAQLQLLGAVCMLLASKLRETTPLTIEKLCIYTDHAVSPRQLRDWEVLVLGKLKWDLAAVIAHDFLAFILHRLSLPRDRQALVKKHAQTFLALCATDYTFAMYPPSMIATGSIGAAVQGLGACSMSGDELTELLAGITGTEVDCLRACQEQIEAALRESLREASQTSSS
Summary of the method: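 Read-out: 32P/33P incorporation into Rb fragment (386-928) captured on nitrocellulose, phosphorimager. Enzyme 5 nM CDK4/cyclin D3(1-264) from insect cells; ATP 25 μM, pH 7.4, 30 °C, 20 min (60 min for tight binders). Ki from competitive fits.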

CDK2/Cyclin A = CDK2/Cyclin A (Homo sapiens, UniProt P24941); assay: Inhibition of CDK2/Cyclin A Retinoblastoma Kinase Activity; type: biochemical; conditions: for Ki: apparent Ki, CDK2/proteolyzed cyclin A, Rb fragment substrate, 25 μM ATP
Summary of the method: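 Human CDK2, baculovirus/insect-cell expressed, complexed with proteolyzed cyclin A (10 nM or 19 nM CDK2) phosphorylates an Rb fragment with 25 μM [32P/33P]ATP at pH 7.4, 30° C, for 60 or 75 minutes under initial-rate conditions. Filter-captured radioactivity is read by phosphorimager; apparent Ki from competitive-inhibition fits.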

HCT-116 cell line = assay: Inhibition of cell growth, tetrazolium salt (MTT) assay; type: cell-based; conditions: for IC50: Homo sapiens, HCT-116, 120 h, MTT, three to five days, read-out: HCT-116 IC50; for HCT-116 % Inhibition at 0.25 μM: 0.25 μM compound
Summary of the method: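 MTT colorimetric viability: three-to-five-day compound exposure in 0.5% (v/v) DMSO at 37° C, MTT 0.2 mg/mL for the last 4 h, A540 compared with vehicle-treated cells.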

[2] = 0.1 μM compound, HCT-116, Table 3
[3] = 0.1 μM compound, HCT-116, Table 4

Compound | Ki [1] [nM] | Ki (CDK2/Cyclin A) [nM] | IC50 (HCT-116 cell line; first HCT-116 column (c4)) [nM] | IC50 (HCT-116 cell line; second HCT-116 column (c5)) [nM] | CDK4 % Inhibition at 0.03 μM ([1]; at 0.03 μM) [%] | CDK2 % Inhibition at 0.03 μM (CDK2/Cyclin A; at 0.03 μM) [%] | HCT-116 % Inhibition at 0.1 μM (HCT-116 cell line; HCT-116 cells, at 0.1 μM) [%] | HCT-116 5 Inhibition at 0.25 μM (HCT-116 cell line; HCT-116 cells) | also measured
CC1CCC(C)N1CCS(=O)(=O)N1CCC(Nc2nc(N)c(C(=O)c3c(F)cccc3F)s2)CC1 (mixture of isomers) [Example K26, (4-Amino-2-{1-[2-(cis/trans-2,5-dimethyl-pyrrolidin-1-yl)-ethanesulfonyl]-piperidin-4-ylamino}-thiazol-5-yl)-(2,6-difluoro-phenyl)-methanone Trifluoroacetic Acid Salt.] | 2.1 | 13 | 190 | 800 | – | – | – | – | –
CC(C)c1ccc(S(=O)(=O)N2CCC(Nc3nc(N)c(C(=O)c4c(F)cccc4F)s3)CC2)cc1 [Example P31] | – | – | – | – | – | – | – | – | CDK4 % Inhibition at 0.03 μM ([1]; 0.03 μM compound, Table 3): 50%; CDK2 % Inhibition at 0.03 μM (CDK2/Cyclin A; 0.03 μM compound, Table 3): 40%; HCT-116 % Inhibition at 0.1 μM (HCT-116 cell line; [2]): 3%; HCT-116 % Inhibition at 0.25 μM (HCT-116 cell line; HCT-116, Table 3): 16%
Nc1nc(NC2CCN(C(=O)c3ccccc3C(F)(F)F)CC2)sc1C(=O)c1c(F)cccc1F [Example Q16] | – | – | – | – | – | – | – | – | CDK4 % Inhibition at 0.03 μM ([1]; 0.03 μM compound, Table 4): 19%; CDK2 % Inhibition at 0.03 μM (CDK2/Cyclin A; 0.03 μM compound, Table 4): −12%; HCT-116 % Inhibition at 0.1 μM (HCT-116 cell line; [3]): 11%; HCT-116 % Inhibition at 0.25 μM (HCT-116 cell line; HCT-116, Table 4): 50%
CCOC(=O)CNC(=O)N1CCC(Nc2nc(N)c(C(=O)c3c(F)cccc3F)s2)CC1 [Example O30] | – | – | – | – | – | – | – | – | CDK4 % Inhibition at 0.03 μM ([1]; 0.03 μM compound, Table 2): 16%; CDK2 % Inhibition At 0.03 μM (CDK2/Cyclin A; 0.03 μM compound, Table 2): 27%; HCT-116 % Inhibition at 0.25 μM (HCT-116 cell line; HCT-116, Table 2): 31%
COc1ccc(C(=O)N2CCC(Nc3nc(N)c(C(=O)c4c(F)cccc4F)s3)CC2)c(OC)c1 [Example R116] | – | – | – | – | 67 | 49 | 9 | 44 | –
Nc1nc(NC2CCN(C(=O)c3c(Cl)cccc3Cl)CC2)sc1C(=O)c1c(F)cccc1F [Example R110] | – | – | – | – | 30 | 24 | 3 | 48 | –
Cn1cnc(-c2ccc(S(=O)(=O)N3CCC(Nc4nc(N)c(C(=O)c5c(F)cccc5F)s4)CC3)cc2)c1 [Example F31, 1-(4-Amino-2-{1-[4-(1-methyl-1H-imidazol-4-yl)-benzenesulfonyl]-piperidin-4-ylamino}-thiazol-5-yl)-1-(2,6-difluoro-phenyl)-methanone Trifluoroacetic Acid Salt] | 0.55 | < 1 | 80 | 300 | – | – | – | – | –
CNCCS(=O)(=O)N1CCC(Nc2nc(N)c(C(=O)c3c(F)cccc3F)s2)CC1 [Example K33, {4-Amino-2-[1-(2-methylamino-ethanesulfonyl)-piperidin-4-ylamino]-thiazol-5-yl}-(2,6-difluoro-phenyl)-methanone Trifluoroacetic Acid Salt.] | 0.64 | 5.6 | 650 | 5000 | – | – | – | – | –
Nc1nc(NC2CCN(S(=O)(=O)c3ccc(N4CCNCC4)nc3)CC2)sc1C(=O)c1c(F)cccc1F [Example G6, 1-{4-Amino-2-[1-(6-piperazin-1-yl-pyridine-3-sulfonyl)-piperidin-4-ylamino]-thiazol-5-yl}-1-(2,6-difluoro-phenyl)-methanone] | 0.54 | 0.69 | 210 | 3200 | – | – | – | – | –
Nc1nc(NC2CCN(C(=O)c3ccc(Cl)c(Cl)c3)CC2)sc1C(=O)c1c(F)cccc1F [Example R133] | – | – | – | – | 52 | 21 | 5 | 56 | –
COc1c(C(=O)N2CCC(Nc3nc(N)c(C(=O)c4c(F)cccc4F)s3)CC2)csc1Br [Example R50] | – | – | – | – | 44 | 51 | 0 | 48 | –
CN(C)CCOc1ncc(S(=O)(=O)N2CCC(Nc3nc(N)c(C(=O)c4c(F)cccc4F)s3)CC2)cn1 [Example H24, (4-Amino-2-{1-[2-(2-dimethylamino-ethoxy)-pyrimidine-5-sulfonyl]-piperidin-4-ylamino}-thiazol-5-yl)-(2,6-difluoro-phenyl)-methanone Trifluoroacetic Acid Salt] | 0.41 | 1.8 | 140 | 2000 | – | – | – | – | –
Nc1nc(NC2CCN(S(=O)(=O)CCCN3CC=CC3)CC2)sc1C(=O)c1c(F)cccc1F [Example K9, 1-(4-Amino-2-{1-[3-(2,5-dihydropyrrol-1-yl)propane-1-sulfonyl]-piperidin-4-ylamino}-thiazol-5-yl)-1-(2,6-difluoro-phenyl)-methanone.] | 1.6 | < 1.3 | 90 | 930 | – | – | – | – | –
CCCCCc1ccc(C(=O)N2CCC(Nc3nc(N)c(C(=O)c4c(F)cccc4F)s3)CC2)cc1 [Example Q37] | – | – | – | – | – | – | – | – | CDK4 % Inhibition at 0.03 μM ([1]; 0.03 μM compound, Table 4): 45%; CDK2 % Inhibition at 0.03 μM (CDK2/Cyclin A; 0.03 μM compound, Table 4): 12%; HCT-116 % Inhibition at 0.1 μM (HCT-116 cell line; [3]): 0%; HCT-116 % Inhibition at 0.25 μM (HCT-116 cell line; HCT-116, Table 4): 31%
Nc1nc(NC2CCN(S(=O)(=O)c3ccc(-c4ccon4)s3)CC2)sc1C(=O)c1c(F)cccc1F [Example P64] | – | – | – | – | – | – | – | – | CDK4 % Inhibition at 0.03 μM ([1]; 0.03 μM compound, Table 3): 81%; CDK2 % Inhibition at 0.03 μM (CDK2/Cyclin A; 0.03 μM compound, Table 3): 80%; HCT-116 % Inhibition at 0.1 μM (HCT-116 cell line; [2]): 13%; HCT-116 % Inhibition at 0.25 μM (HCT-116 cell line; HCT-116, Table 3): 31%
CCC(CC)C(=O)N1CCC(Nc2nc(N)c(C(=O)c3c(F)cccc3F)s2)CC1 [Example R164] | – | – | – | – | 19 | 9 | 0 | 41 | –
Nc1nc(NC2CCN(C(=O)c3ccc([N+](=O)[O-])cc3)CC2)sc1C(=O)c1c(F)cccc1F [Example Q71] | – | – | – | – | – | – | – | – | CDK4 % Inhibition at 0.03 μM ([1]; 0.03 μM compound, Table 4): 61%; CDK2 % Inhibition at 0.03 μM (CDK2/Cyclin A; 0.03 μM compound, Table 4): 28%; HCT-116 % Inhibition at 0.1 μM (HCT-116 cell line; [3]): 2%; HCT-116 % Inhibition at 0.25 μM (HCT-116 cell line; HCT-116, Table 4): 30%
N#C/C(=C\c1cccc(O)c1)C(=O)N1CCC(Nc2nc(N)c(C(=O)c3c(F)cccc3F)s2)CC1 [Example D13, 12(Z)-(1-{4-[4-Amino-5-(2,6-difluoro-benzoyl)-thiazol-2-ylamino]-piperidin-1-yl}-methanoyl)-3-(3-hydroxy-phenyl)-acrylonitrile Trifluoroacetic Acid Salt] | 1.8 | 24 | 1300 | 5000 | – | – | – | – | –
CN(C)CCc1ccc(S(=O)(=O)N2CCC(Nc3nc(N)c(C(=O)c4c(F)cccc4F)s3)CC2)cn1 [Example N11, (4-Amino-2-{1-[6-(2-dimethylamino-ethyl)-pyridine-3-sulfonyl]-piperidin-4-ylamino}-thiazol-5-yl)-(2,6-difluoro-phenyl)-methanone TFA Salt.] | 0.39 | 1.6 | 140 | 1600 | – | – | – | – | –
Nc1nc(NC2CCN(S(=O)(=O)c3ccc(N4CCC(O)C4)nc3)CC2)sc1C(=O)c1c(F)cccc1F (stereo not shown) [Example G11, 1-(4-Amino-2-{1-[6-(3-hydroxy-pyrrolidin-1-yl)-pyridin-3-sulfonyl]-piperidin-4-ylamino}-thiazol-5-yl)-1-(2,6-difluoro-phenyl)-methanone Trifluoroacetic Acid Salt] | 0.86 | < 1 | 420 | > 5000 | – | – | – | – | –
Nc1nc(NC2CCN(C(=O)N3CCCC3)CC2)sc1C(=O)c1c(F)cccc1F [Example R81] | – | – | – | – | 29 | −10 | 13 | 43 | –
CCCCCc1ccc(C(=O)N2CCC(Nc3nc(N)c(C(=O)c4c(F)cccc4F)s3)CC2)cc1 [Example R158] | – | – | – | – | 44 | 24 | 0 | 41 | –
Nc1nc(NC2CCN(C(=O)c3ccccc3Cl)CC2)sc1C(=O)c1c(F)cccc1F [Example Q13] | – | – | – | – | – | – | – | – | CDK4 % Inhibition at 0.03 μM ([1]; 0.03 μM compound, Table 4): 48%; CDK2 % Inhibition at 0.03 μM (CDK2/Cyclin A; 0.03 μM compound, Table 4): 13%; HCT-116 % Inhibition at 0.1 μM (HCT-116 cell line; [3]): 5%; HCT-116 % Inhibition at 0.25 μM (HCT-116 cell line; HCT-116, Table 4): 43%
